From patent US11919902B2, “Aryl-bipyridine amine derivatives as phosphatidylinositol phosphate kinase inhibitors” (HiberCell, Inc., priority 2017, dated 2024)

Legend:
[1] = target: T1, GST tagged PIP4KtypeIIB (Homo sapiens, UniProt P78356); experiment: Trans-FI P kinase assay PIP4K2B (PIP4KtypeIIB inhibition assay); assay type: biochemical; details: Table 4; compounds listed under IC50 range headings; 100 uM GTP, 5 nM PIP4KIIB; read-out: Trans-FI P kinase assays: PIP4K2B IC50
T1 construct: made in house; host or cells: E. coli
T1 sequence (P78356 1-416): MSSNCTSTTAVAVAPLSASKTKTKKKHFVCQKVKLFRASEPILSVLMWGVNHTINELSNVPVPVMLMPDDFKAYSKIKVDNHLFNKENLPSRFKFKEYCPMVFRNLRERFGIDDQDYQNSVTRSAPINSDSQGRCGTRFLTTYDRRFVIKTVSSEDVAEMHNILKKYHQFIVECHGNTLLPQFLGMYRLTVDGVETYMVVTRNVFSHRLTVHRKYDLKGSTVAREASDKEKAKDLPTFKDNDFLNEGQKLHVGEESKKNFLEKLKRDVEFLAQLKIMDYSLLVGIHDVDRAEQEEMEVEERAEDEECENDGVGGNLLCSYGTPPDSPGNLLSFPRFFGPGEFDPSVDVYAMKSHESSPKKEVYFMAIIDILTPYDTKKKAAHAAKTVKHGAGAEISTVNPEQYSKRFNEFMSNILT
Procedure, shortened: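 Transcreener FI fluorescence, converted to GDP by calibration, tracked product from 5 nM E. coli-expressed GST-PIP4KIIB acting on 80 uM PI5P (DOPE carrier) with 100 uM GTP. Compound (top 4.8 uM final, 5% DMSO) was preincubated 1 h at 27 C before the 2 h reaction; IC50 fitted from residual activity.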

[2] = target: T2, PIP4K2A (full length protein, SignalChem) (Homo sapiens, UniProt P48426); experiment: Kinase Assay PIP4K2 A (Sprint); ADP-Glo biochemical assay; details: Table 2; compounds listed under IC50 range headings
T2 construct: 4 nM PIP4K2A (full length protein, SignalChem); purchased SignalChem
T2 sequence (P48426 1-406): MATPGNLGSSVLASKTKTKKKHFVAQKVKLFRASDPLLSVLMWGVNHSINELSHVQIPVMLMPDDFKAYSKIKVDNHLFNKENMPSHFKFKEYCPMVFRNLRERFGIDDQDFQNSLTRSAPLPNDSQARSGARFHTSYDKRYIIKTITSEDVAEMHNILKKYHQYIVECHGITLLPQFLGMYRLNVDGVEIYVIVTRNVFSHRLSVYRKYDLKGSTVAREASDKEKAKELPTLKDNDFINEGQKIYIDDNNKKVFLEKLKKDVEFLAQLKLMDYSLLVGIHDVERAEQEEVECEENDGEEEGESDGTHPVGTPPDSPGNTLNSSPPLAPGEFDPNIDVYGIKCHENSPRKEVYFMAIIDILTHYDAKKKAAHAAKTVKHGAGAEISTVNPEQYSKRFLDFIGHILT
Procedure, shortened: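 ADP-Glo luminescence detected ADP after a 1 h RT reaction started with 60 μM ATP solution. Before that, full-length PIP4K2A (4 nM in mix) with 100 μM PI(5)P diC8 was pre-incubated 15 min with compounds in MOPS buffer pH 7.2, 25 mM MgCl2, 0.005% Tween 20. IC50 derived from % inhibition relative to DMSO over 10 three-fold concentrations.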

Compound | IC50 [1] | IC50 [2]
CN1CCn2c(cc3c(-c4cncc(-c5ccc(-c6nnc7n6CCC7)cc5)c4)ccnc32)C1=O [Example 348, 4-(5-(4-(6,7-dihydro-5H-pyrrolo[2,1-c][1,2,4]triazol-3-yl)phenyl)pyridin-3-yl)-7-methyl-8,9-dihydropyrido[3′,2′:4,5]pyrrolo[1,2-a]pyrazin-6(7H)-one] | 100 to 1000 nM | 100 to 1000 nM
CC(C)n1ccnc1-c1ccc(-c2cncc(-c3ccnc4c3cc3n4CCN(C)C3=O)c2)cc1 [Example 364, 4-(5-(4-(1-isopropyl-1H-imidazol-2-yl)phenyl)pyridin-3-yl)-7-methyl-8,9-dihydropyrido[3′,2′:4,5]pyrrolo[1,2-a]pyrazin-6(7H)-one] | 1000 to 2500 nM | < 5000 nM
CN1CCn2c(cc3c(-c4cncc(-c5ccc(C(=O)N6CCC7(CC7)C6)cc5)c4)ccnc32)C1=O [Example 230, 4-(5-(4-(5-azaspiro[2.4]heptane-5-carbonyl)phenyl)pyridin-3-yl)-7-methyl-8,9-dihydropyrido[3′,2′:4,5]pyrrolo[1,2-a]pyrazin-6(7H)-one] | 100 to 1000 nM | 100 to 1000 nM
CC(C)n1cnnc1-c1ccc(-c2cncc(-c3ccnc4[nH]c(C(=O)NCc5ccccc5)cc34)c2)cc1 [Example 373, N-benzyl-4-(5-(4-(4-isopropyl-4H-1,2,4-triazol-3-yl)phenyl)pyridin-3-yl)-1H-pyrrolo[2,3-b]pyridine-2-carboxamide] | 10 to 100 nM | 100 to 1000 nM
CN1CCn2c(cc3c(-c4cncc(-c5ccc(C(=O)N6C7CCC6CC7)cc5)c4)ccnc32)C1=O [Example 382, 4-(5-(4-(7-azabicyclo[2.2.1]heptane-7-carbonyl)phenyl)pyridin-3-yl)-7-methyl-8,9-dihydropyrido[3′,2′:4,5]pyrrolo[1,2-a]pyrazin-6(7H)-one] | 100 to 1000 nM | 100 to 1000 nM
CC(C)c1conc1-c1ccc(-c2cncc(-c3ccnc4c3cc3n4CCN(C)C3=O)c2)cc1 [Example 375, 4-(5-(4-(4-isopropylisoxazol-3-yl)phenyl)pyridin-3-yl)-7-methyl-8,9-dihydropyrido[3′,2′:4,5]pyrrolo[1,2-a]pyrazin-6(7H)-one] | 10 to 100 nM | 100 to 1000 nM
Cc1ccnnc1-c1ccc(-c2cncc(-c3ccnc4c3cc3n4CCN(C)C3=O)c2)cc1 [Example 370, 7-methyl-4-(5-(4-(4-methylpyridazin-3-yl)phenyl)pyridin-3-yl)-8,9-dihydropyrido[3′,2′:4,5]pyrrolo[1,2-a]pyrazin-6(7H)-one] | 1 to 10 nM | 5 to 100 nM
CN1CCn2c(cc3c(-c4cncc(-c5ccc(-c6nncn6CC6CC6)cc5)c4)ccnc32)C1=O [Example 376, 4-(5-(4-(4-(cyclopropylmethyl)-4H-1,2,4-triazol-3-yl)phenyl)pyridin-3-yl)-7-methyl-8,9-dihydropyrido[3′,2′:4,5]pyrrolo[1,2-a]pyrazin-6(7H)-one] | 10 to 100 nM | 1000 to 2500 nM
CC(C)c1cncc(-c2ccc(-c3cncc(-c4ccnc5c4cc4n5CCN(C)C4=O)c3)cc2)c1 [Example 380, 4-(5-(4-(5-isopropylpyridin-3-yl)phenyl)pyridin-3-yl)-7-methyl-8,9-dihydropyrido[3′,2′:4,5]pyrrolo[1,2-a]pyrazin-6(7H)-one] | 2500 to 5000 nM | 1000 to 2500 nM
CN(C)C(=O)c1ccc(-c2cc(-c3cnc4c(c3)c(-c3cncnc3)cn4C)cnc2N)nc1 [Example 122, 2′-amino-N,N-dimethyl-5′-(1-methyl-3-(pyrimidin-5-yl)-1H-pyrrolo[2,3-b]pyridin-5-yl)-[2,3′-bipyridine]-5-carboxamide] | 1000 to 2500 nM | 100 to 1000 nM
CNC(=O)c1cc2c(-c3cnc(N)c(-c4ccc(-c5nncn5C(C)C)cc4)c3)ccnc2o1 [Example 362, 4-(6-amino-5-(4-(4-isopropyl-4H-1,2,4-triazol-3-yl)phenyl)pyridin-3-yl)-N-methylfuro[2,3-b]pyridine-2-carboxamide] | 10 to 100 nM | 100 to 1000 nM

The next lines start with the values.

IC50 [1] | IC50 [2] | Compound
10 to 100 nM | 100 to 1000 nM | Cc1c[nH]c2nccc(-c3cnc(N)c(-c4ccc(N5CCCC5=O)cc4)c3)c12 [Example 309, 1-(4-(2-amino-5-(3-methyl-1H-pyrrolo[2,3-b]pyridin-4-yl)pyridin-3-yl)phenyl)pyrrolidin-2-one]
10 to 100 nM | 100 to 1000 nM | CC(C)(O)c1cnc2[nH]c(C3CC3)c(-c3cncc(-c4ccc(N5CCCC5=O)cc4)c3)c2c1 [Example 338, 1-(4-(5-(2-cyclopropyl-5-(2-hydroxypropan-2-yl)-1H-pyrrolo[2,3-b]pyridin-3-yl)pyridin-3-yl)phenyl)pyrrolidin-2-one]
10 to 100 nM | 2500 to 5000 nM | O=C(Nc1ccccc1)c1cc2c(-c3cncc(-c4ccc(N5CCCC5=O)cc4)c3)ccnc2[nH]1 [Example 329, 4-(5-(4-(2-oxopyrrolidin-1-yl)phenyl)pyridin-3-yl)-N-phenyl-1H-pyrrolo[2,3-b]pyridine-2-carboxamide]
> 5000 nM | 2500 to 5000 nM | O=C1CCCN1c1ccc(-c2cncc(-c3cnc4ncc(-c5cccnc5)n4c3)c2)cc1 [Example 344, 1-(4-(5-(3-(pyridin-3-yl)imidazo[1,2-a]pyrimidin-6-yl)pyridin-3-yl)phenyl)pyrrolidin-2-one]
100 to 1000 nM | 1000 to 2500 nM | CN1CCn2c(cc3c(-c4cncc(-c5ccc(N6CC(C)(C)CCC6=O)cc5)c4)ccnc32)C1=O [Example 326, 4-(5-(4-(5,5-dimethyl-2-oxopiperidin-1-yl)phenyl)pyridin-3-yl)-7-methyl-8,9-dihydropyrido[3′,2′:4,5]pyrrolo[1,2-a]pyrazin-6(7H)-one]
1 to 10 nM | 5 to 100 nM | C[C@@H]1CCC(=O)N1c1ccc(-c2cncc(-c3ccnc4c3cc3n4CCN(C)C3=O)c2)cc1 [Example 306, (R)-7-methyl-4-(5-(4-(2-methyl-5-oxopyrrolidin-1-yl)phenyl)pyridin-3-yl)-8,9-dihydropyrido[3′,2′:4,5]pyrrolo[1,2-a]pyrazin-6(7H)-one]
10 to 100 nM | 100 to 1000 nM | O=C(NCc1nc2ccccc2s1)c1cc2c(-c3cncc(-c4ccc(N5CCCC5=O)cc4)c3)ccnc2[nH]1 [Example 319, N-(benzo[d]thiazol-2-ylmethyl)-4-(5-(4-(2-oxopyrrolidin-1-yl)phenyl)pyridin-3-yl)-1H-pyrrolo[2,3-b]pyridine-2-carboxamide]
100 to 1000 nM | 100 to 1000 nM | O=C(c1cc2c(-c3cncc(-c4ccc(N5CCCC5=O)cc4)c3)ccnc2[nH]1)N1CCCC2(CCCO2)C1 (centres unmarked) [Example 332, 1-(4-(5-(2-(1-oxa-7-azaspiro[4.5]decane-7-carbonyl)-1H-pyrrolo[2,3-b]pyridin-4-yl)pyridin-3-yl)phenyl)pyrrolidin-2-one]
100 to 1000 nM | 100 to 1000 nM | C[C@@H]1C[C@@H](C(C)(C)O)N(C(=O)c2cc3c(-c4cncc(-c5ccc(N6CCCC6=O)cc5)c4)ccnc3[nH]2)C1 [Example 397]
10 to 100 nM | < 5000 nM | Cc1cccc2[nH]c(CNC(=O)c3cc4c(-c5cncc(-c6ccc(N7CCCC7=O)cc6)c5)ccnc4[nH]3)nc12 [Example 317, N-((4-methyl-1H-benzo[d]imidazol-2-yl)methyl)-4-(5-(4-(2-oxopyrrolidin-1-yl)phenyl)pyridin-3-yl)-1H-pyrrolo[2,3-b]pyridine-2-carboxamide]
100 to 1000 nM | 1000 to 2500 nM | Cc1noc2nccc(-c3cncc(-c4ccc(N5CCCC5=O)cc4)c3)c12 [Example 307, 1-(4-(5-(3-methylisoxazolo[5,4-b]pyridin-4-yl)pyridin-3-yl)phenyl)pyrrolidin-2-one]
